Counter-ions that a name gives are not always drawn.

With `Cc1ccc(COC(=O)N2CC[C@@H](CNc3nncs3)[C@@H](F)C2)cc1` (stereo in doubt) (as salt: hydrochloride) [Example 6, (−)-cis-4-methylbenzyl 3-fluoro-4-[(1,3,4-thiadiazol-2-ylamino)methyl]piperidine-1-carboxylate], the melting point lay within 115 to 117 °C.

Turning to `Cc1ccc(COC(=O)N2CC[C@@H](CNc3nncs3)[C@H](F)C2)cc1` [Example 7, (+)-trans-4-methylbenzyl 3-fluoro-4-[(1,3,4-thiadiazol-2-ylamino)methyl]piperidine-1-carboxylate], the melting point lay within 93 to 95 °C.

`O=C([C@@H]1C[C@H]1c1ccccc1)N1CC[C@H](CNc2ncccn2)[C@H](F)C1` (as salt: hydrochloride) [Example 5, (3S,4R)-N-[(3-cis-fluoro-1-{[(1R,2R)-2-phenylcyclopropyl]carbonyl}piperidin-4-yl)methyl]pyrimidin-2-amine] returned a melting point of 127 to 128 °C.

By melting point is commonly meant the temperature, or range, at which the solid turns liquid.
